This is an account of results in ChEMBL document CHEMBL1156829 (Proc Natl Acad Sci U S A, 2008).

For orientation: EC50 means the concentration giving half of the maximal effect. What is called CC50 is the concentration giving 50% cytotoxicity. Read a high CC50 as lower toxicity to the cells.

The subject of data set [1] is Plasmodium falciparum. The data set is described as follows: NOVARTIS: Inhibition of Plasmodium falciparum W2 (drug-resistant) proliferation in erythrocyte-based infection assay. The settings on record: Plasmodium falciparum, W2; read-out: EC50. The format is functional, organism-based.
Data set [2] is described as follows: NOVARTIS: Cytotoxicity against human hepatocellular carcinoma cell line (Huh7). The format is toxicity, cell-based, Huh-7. As to conditions: Huh7 cells (hepatocellular carcinoma cell line).
Data set [3] relates to Plasmodium falciparum. The data set is described as follows: NOVARTIS: Inhibition of Plasmodium falciparum 3D7 (drug-susceptible) proliferation in erythrocyte-based infection assay. The format is functional, organism-based. The settings on record: Plasmodium falciparum, 3D7.

As to `O=C(c1cccs1)N1CCN(c2ccc([N+](=O)[O-])c(NC3CC3)c2)CC1`, the half-maximal effective concentration (EC50) in data set [1] was 1.37 µM; in data set [3], 2.09 µM. In data set [2], this compound returned a CC50 above 100 µM.

On to `COc1cc2nc(NCCN3CCOCC3)n3nc(-c4ccccc4)nc3c2cc1OC`, for which the EC50 turned out to be 0.134 µM in data set [1] and 0.114 µM in data set [3]. Also, the CC50 in data set [2] was above 10 µM.

Take `C=CCC(=O)NC1CCN(CC(O)CN(Cc2ccccc2)S(=O)(=O)c2ccccc2)C1` (stereo unspecified): the values for the half-maximal effective concentration (EC50) in data set [1] and in data set [3] were 1.33 µM and 0.257 µM, respectively. For the same compound, in data set [2], the CC50 is above 100 µM.

Consider `COc1cc(C(=O)OCCC2CCC[N+]3(C)CCCCC23)cc(OC)c1OC` (stereo unspecified), for which the EC50 in data set [1] is 1.34 µM; in data set [3], above 12.5 µM. In addition, the CC50 in data set [2] is above 100 µM.

With `CC(=O)N1CCOC1C(C)(C)CC=C(C)CCC=C(C)C` (stereo unspecified), the values for the EC50 in data set [1] and in data set [3] were 1.34 µM and 2.04 µM, respectively. The half-maximal cytotoxic concentration (CC50) in data set [2] was above 100 µM.

For the compound `CCOC(=O)c1c(-c2ccccc2)oc2c1C(=O)c1ccccc1C2=O`, the figures for the EC50 in data set [1] and in data set [3] were 1.35 µM and 1.13 µM, respectively. Besides, in data set [2], the 50% cytotoxic concentration (CC50) is above 100 µM.

As for `Cc1noc(-c2ccc(O)cc2O)c1-c1ccc2c(c1)OCCO2`, the EC50 in data set [1] came out at 0.204 µM; in data set [3], 0.248 µM. The compound further registered a cytotoxic concentration (CC50) in data set [2] of 15.2 µM.

`COC(=O)[C@@H]1C[C@@H](NC(=O)c2ccc(C)cc2)CN1Cc1ccc(OC)c(C)c1OC`: the figures for the concentration for a half-maximal effect (EC50) in data set [1] and in data set [3] were 0.137 µM and 0.565 µM, respectively. This compound also showed a cytotoxic concentration (CC50) in data set [2] above 10 µM.

In the case of `COc1cccc2c1OCC(CN1CCC(C(=O)Nc3ccc(-n4cccn4)cc3)CC1)=C2`, the EC50 in data set [1] was above 1.36 µM; in data set [3], 0.817 µM. This compound also yielded a 50% cytotoxic concentration (CC50) in data set [2] above 100 µM.

For `Cc1cccc(C)c1OCC(=O)Nc1ccccc1O`, the EC50 in data set [1] worked out at 1.36 µM; in data set [3], 0.742 µM. Also, the CC50 in data set [2] is above 100 µM.

As to `O=S(=O)(Nc1ccc(F)cc1)N1CCCCCC1`, the EC50 is 1.36 µM in data set [1] and above 12.5 µM in data set [3]. Moreover, the cytotoxic concentration (CC50) in data set [2] is above 100 µM.

As for `COc1cccc(NC(=O)c2ccc(NCCCC3CCCCCC3)c([N+](=O)[O-])c2)c1`, the half-maximal effective concentration (EC50) in data set [1] was 0.391 µM; in data set [3], 0.226 µM. For the same compound, the CC50 in data set [2] is 28.8 µM.

As for `CCCCN(CCCC)CCCNc1ncnc2c1[nH]c1ccc(C)cc12`, the EC50 in data set [1] came out at 0.1 µM; in data set [3] it was 0.148 µM. The compound also gave a CC50 in data set [2] of 7.41 µM.

Take `CCCc1c(C)nc2ccc(Br)cc2c1O`: the results for the EC50 in data set [1] and in data set [3] were 1.34 µM and 1.51 µM, respectively. Further, in data set [2], the CC50 is above 100 µM.

For `CC(C)N1CCCc2cc(CN3CCC(n4cc(C(=O)NCCCO)nn4)CC3)ccc21`, the half-maximal effective concentration (EC50) in data set [1] is 0.134 µM; in data set [3] it was above 1.25 µM. Besides, in data set [2], the half-maximal cytotoxic concentration (CC50) was above 10 µM.

As to `COc1ccccc1N1C(=N)S/C(=C/c2ccc(N(C)C)cc2)C1=O`, the EC50 turned out to be 0.136 µM in data set [1] and 0.119 µM in data set [3]. Also, the half-maximal cytotoxic concentration (CC50) in data set [2] is above 10 µM.

Consider `CCOc1ccc2[nH]c3c(NCCN(C)C)ncnc3c2c1`, for which the figures for the EC50 in data set [1] and in data set [3] were 0.437 µM and 0.773 µM, respectively. Further, half-maximal cytotoxicity in data set [2] (CC50) was put at 32.5 µM.

For `Cc1ccc(COc2ccc3c(C#N)c4ccccn4c3c2)cc1`, the EC50 worked out at 1.37 µM in data set [1] and 2.09 µM in data set [3]. Moreover, the half-maximal cytotoxic concentration (CC50) in data set [2] was above 100 µM.

`Cc1ccc(C2CC(=O)N3CN(c4ccc(Br)cc4)CSC3=C2C#N)o1` (stereo unspecified): the 50% effective concentration (EC50) in data set [1] is 1.35 µM; in data set [3] it was above 12.5 µM. The same compound came in with a 50% cytotoxic concentration (CC50) in data set [2] above 100 µM.

In the case of `CC(C)(C)CC(C)(C)Nc1c(-c2ccccc2OC(=O)c2cccc(C(F)(F)F)c2)nc2ccccn12`, the figures for the concentration giving a half-maximal response (EC50) in data set [1] and in data set [3] were 0.134 µM and 0.957 µM, respectively. Besides, the 50% cytotoxic concentration (CC50) in data set [2] is above 10 µM.

`CC(=O)Nc1ccc(S(=O)(=O)N(C)CC(=O)NN=Cc2ccncc2)cc1`: the 50% effective concentration (EC50) in data set [1] is 1.36 µM; in data set [3], above 5.76 µM. Moreover, the half-maximal cytotoxic concentration (CC50) in data set [2] is above 100 µM.

Regarding `CCOC(=O)c1ccc(OCC2c3cc(OC)c(OC)cc3CCN2C(=O)c2ccc([N+](=O)[O-])cc2)cc1` (stereo unspecified), the concentration for a half-maximal effect (EC50) in data set [1] was 1.35 µM; in data set [3] it was above 12.5 µM. Besides, the CC50 in data set [2] was above 100 µM.
